Results as given in US9956304B2, “Contrast agents, methods for preparing contrast agents, and methods of imaging” (GEORGIA STATE UNIVERSITY RESEARCH FOUNDATION, INC., priority 2012, dated 2018).
Where two headings read alike, the source gives them in different places.

Tests used:
[1] = In vivo MRI detection limit (kidney/liver enhancement); set-up: species or system mice; details: 1.6 μmol/kg
[2] = kidney; Gd-DTPA 0.2 mmol/kg, Gd-ProCA32 0.02 mmol/kg
[3] = mice; cited from earlier work
[4] = human, cited from earlier work
[5] = Arterial input function study, 9.4 T; details: mouse, in vivo
[6] = Organ distribution and accumulation of Gd3+ by ICP-OES; details: 10 minutes post i.v. injection
[7] = in vivo; cited from earlier work
[8] = target: integrin; details: read-out: binding affinity between RGD and integrin; cited from earlier work
[9] = mouse, in vivo, iv
[10] = mouse, in vivo; cited from earlier work
[11] = Gd3+ Kd by FLUO-5N titration and competition; assay type: binding; details: 2 mM nitrilotriacetate buffer; read-out: Kd to Gd^3+
Protocol: The buffer system contained 2 mM nitrilotriacetate. The fluorescence signal of FLUO-5N increased till it was up to saturation state. The fluorescence signal intensity plots were fitted by hill equation.
The Kd of ProCA1 variants to Gd^3+ was determined by the competition between ProCA1 variants and FLUO-5N. When the concentrations of FLUO-5N and Gd^3+ were fixed, ProCA1 variants were gradually added to the sample solution to compete Gd^3+ with FLUO-5N.
Where Kd1 is the dissociation constant for FLUO-5N, [FLUO-5N]T is the total concentration of FLUO-5N, Kapp is the apparent dissociation constant for protein and Kd2 is the dissociation constant for protein.

[12] = read-out: Kd to Gd^3+ (other's result); cited from earlier work
[13] = Fura-2 competition assay (Gd3+ loaded Fura-2); assay type: binding; details: Gd^3+ loaded Fura-2 20 μM, protein 10-20 μM
Protocol: To test our hypothesis and screening ProCA candidates with highest thermodynamic stability, Gd^3+ binding affinity and metal selectivity of ProCAs were measured by metal-chelator buffer system. ProCA3 variants were purified using Henzl's method with large modification. […] The Tb^3+-binding affinity of calcium-binding protein was measured by Tb^3+-chelator buffer system. Free metal concentration was carefully controlled by the ratio of metal with chelators from 0 to 1. After measured the Kd of Tb^3+, the Kd of Gd^3+ to ProCA is measured by Gd^3+ competition methods. […] To better understanding the properties of our contrast agents, we introduce a tryptophan residue into the ProCA3. […] Thus, D, D, D, E, E in position 1, 3, 5, 9, 12 of EF-hand is the optimized key residues to achieve high Gd^3+ binding affinity.

[14] = T1- and T2-weighted MRI of liver and blood vessels; assay type: in vivo, mice; details: mouse, in vivo
Protocol: Because the enhanced T1- and T2-weighted images have different effects of imaging contrast (brighter or darker, respectively), there is an enhanced probability of detecting the targeted tumor tissue. In contrast, the currently available approved liver contrast agents such as Eovist® have a very short fast phase (sec.) and liver uptake phase (approximately 3 min) in human. The mouse halftime is much shorter. Due this limitation, with these agents, it is not possible to obtain both high quality imaging for small animal. For human, their applications are also limited by their low relaxivity and short half-life. It is possible to obtain very high quality imaging by applying our contrast agent to both low and high field strengths such as 0.47-9.4 T.
Longer blood circulation of ProCA will benefit the MRI guided intervention therapy […], since such therapy usually performed for a very long time. Long blood circulation time of ProCA32 in blood also promising for the application of DCE-MRI. Arterial input function (AIF) in DCE-MRI experiment is the key experiment for successful calculating tumor permeability. However, it is hard to accurate determine AIF of current clinically available MRI contrast agents, since the blood circulation time of current clinically available MRI contrast agents is too short. […]

[15] = test system: uveal melanoma metastasis in liver; set-up: species or system PEDF knockout mice; details: mouse, in vivo
[16] = cited from earlier work

O=C([O-])CN(CCN(CC(=O)[O-])CC(=O)O)CCN(CC(=O)[O-])CC(=O)O.[Gd+3] [Gd-DTPA]
kidney enhancement under MRI [1]: do not show any significant kidney enhancement | time to maximum cortex enhancement [2]: ≤ 1 min | time to maximum medulla enhancement [2]: ≤ 1 min | blood half-life [3]: 2 min | blood half-life [4]: 10 min | AIF half-life [5]: less than 1 min | organ distribution of Gd^3+ [6]: mainly accumulated in kidney

CNC[C@H](O)[C@@H](O)[C@H](O)[C@H](O)CO.CNC[C@H](O)[C@@H](O)[C@H](O)[C@H](O)CO.O=C([O-])CN(CCN(CC(=O)[O-])CC(=O)O)CCN(CC(=O)O)C(COCc1ccccc1)C(=O)[O-].[Gd+3] (stereo not shown) [Multihance, Gd-BOPTA]
hepatocyte up take [7]: 5% | retention time in the liver [7]: 1 min

Arg-Gly-Asp [RGD]
Kd [8]: ~1000 nM

[Cl][Gd]([Cl])[Cl] [GdCl3]
long term Gd^3+ accumulation in organs [9]: much higher accumulation in bone, liver and spleen | organ distribution of Gd^3+ [9]: mainly distributed in the lung and spleen

[Gd+3] [Free Gd^3+]
LD50 [10]: 0.1 mmol/kg

O=C(O)CN(CC(=O)O)c1ccc(-c2c3cc(F)c(=O)cc-3oc3cc(O)c(F)cc23)cc1OCCOc1cc([N+](=O)[O-])ccc1N(CC(=O)O)CC(=O)O [FLUO-5N]
Kd [11]: 0.0052 nM | Kd [12]: 0.0038 nM

calmodulin
Gd^3+ affinity relative to Fura-2 [13]: does not shift the wavelength of Fura-2

CCOc1ccc(CC(CN(CCN(CC(=O)[O-])CC(=O)[O-])CC(=O)[O-])N(CC(=O)[O-])CC(=O)[O-])cc1.[Gd+3].[Na+].[Na+] (stereo not shown) [Eovist, Gd-EOB-DTPA]
effect on liver signal in T2 weighted MR images [14]: does not cause such decrease | tumor detection in same mice model [15]: No tumor can be detected | liver uptake phase ([4]; in vivo): approximately 3 min | hepatocyte up take [7]: 50% | retention time in the liver [7]: 30 min

O=C([O-])CN(CCN(CC(=O)[O-])CC(=O)[O-])CCN(CC(=O)[O-])CC(=O)[O-].[Na+].[Na+].[Na+].[Zn+2] [Zn-DTPA]
selectivity of Zn^2+ over Gd^3+ [16]: 4.17
